Experimental data as given in US20160235778A1, “COMPOSITIONS CONTAINING PUFA, URIDINE AND CHOLINE AND METHODS OF USE THEREOF” (MASSACHUSETTS INSTITUTE OF TECHNOLOGY, priority 2014, published 2016).

Columns and labels:
PC-12 cells = assay: 14C-choline incorporation into phospholipids in PC-12 cells; assay type: cell-based
Description: PC-12 cells were maintained in Dulbecco's modified Eagle's medium (DMEM)+10% fetal bovine serum (FBS). For experiments, cells were grown in quintuplicate collagen-coated 35 millimeter (mm) dishes. Cells were incubated for 18 hours (hr) in serum-free DMEM containing 28 μM choline+/−5 micromolar (μM) of DHA, oleic acid, or palmitic acid. Cells were then labeled for 2.5 hr with 0.5 microcurie (μCi)/ml ^14C-choline in serum-free DMEM containing 10-micromolar (μM) choline.
Cells were homogenized in 100 volumes of ice-cold deionized water using a tissue degrader (Polytron PT 10-35, Kinematica AG, Switzerland); 1 ml of aliquots were then mixed with 3 ml of chloroform+methanol mixture (2:1 v/v) and vortexed vigorously for 30 seconds. After cooling for 1 h on ice, the mixture was mixed sequentially with 3 ml of chloroform+methanol mixture (2:1 v/v) and 1 ml of ice-cold deionized water. […] Total phosphorus was determined by comparison with standard curves by using KH2PO4 run with each assay. […] Absorbance was measured spectrophotometrically at 820 nm. Phospholipid mass was determined by multiplying the phosphorus content by 25.
To further characterize the stimulation of phospholipid synthesis by omega-3 fatty acids, PC-12 cells were pre-treated with different doses of DHA and exposed to labeled choline as described in Example 1, then incorporation of ^14C-label into phospholipids was measured. […]

brain phospholipids = assay: Brain phospholipid levels in pups of treated pregnant and nursing mothers; assay type: in vivo; conditions: rat pups
Description: In another study, pregnant rats were allowed to consume ad libitum, for 10 days before parturition and 20 days while nursing, either a choline-containing control diet or this diet supplemented with uridine as UMP; half of each group also received DHA or its diluent daily, by gavage. Pups were then sacrificed and brain slices were examined to determine numbers of hippocampal dendritic spines.
Pregnant and nursing rats were administered DHA and/or uridine as described in Example 9. At 20 days post-birth, rats were sacrificed and brain samples were obtained and assayed for phospholipids. Administration of DHA alone increased brain PC, PI, PE, and sphingomyelin (SM) per cell (DNA) by 36, 166, 38, and 78%, respectively. UMP markedly amplified the effects of DHA to 66, 210, 68, and 99% of control, respectively (Table 8). These increases were greater than those observed in adult animals. Similar results were obtained when normalizing to protein (Table 9). Thus, administration of DHA and/or uridine to pregnant and nursing mothers is able to increase phospholipid levels in the offspring.

[1] = postnatal day 20, normalized to DNA
[2] = postnatal day 20, normalized to protein

In the case of `CCC=CCC=CCC=CCC=CCC=CCC=CCCC(=O)O` [DHA, 4,7,10,13,16,19-docosahexaenoic acid], the “Phosphatidylcholine (PC) synthesis (incorporation of 14C label into PC)” value (PC-12 cells; 18 h pre-incubation with 5 μM fatty acid, FIG. 1) is reported as “significantly increased”, the “synthesis of phospholipids (incorporation of 14C-label)” value (PC-12 cells; different doses of DHA, dose-dependent, FIG. 2) is reported as “increased synthesis of phospholipids” and the “PC, percent increase over control” value (brain phospholipids; [1]) is reported as 36%. For the same compound, the “PE, percent increase over control” value (brain phospholipids; [1]) was 38%, the “PI, percent increase over control” value (brain phospholipids; [1]) was 166% and the “SM, percent increase over control” value (brain phospholipids; [1]) was 78%. For the same compound, the “Total Phospholipids, percent increase over control” value (brain phospholipids; [1]) was 30%, the “PC, percent increase over control” value (brain phospholipids; [2]) was 23% and the “PE, percent increase over control” value (brain phospholipids; [2]) was 24%. For the same compound, the “PI, percent increase over control” value (brain phospholipids; [2]) was 141%, the “SM, percent increase over control” value (brain phospholipids; [2]) was 59% and the “Total Phospholipids, percent increase over control” value (brain phospholipids; [2]) was 16%.
